According to ChEMBL document CHEMBL1156063, “Design of new antifungal agents: synthesis and evaluation of 1-[(1H-indol-5-ylmethyl)amino]-2-phenyl-3-(1H-1,2,4-triazol-1-yl)propan-2-ols” (2009):
In brackets after ≈: the same amount, converted by molar mass. Activity calls are given as the source filed them. No cut-off for these calls is given here.

Tests used:
Format in all cases: functional
Candida albicans [1] = assay: Antifungal activity against Candida albicans CA98001
Candida albicans [2] = assay: Antifungal activity against fluconazole-resistant Candida albicans CA284
Pichia kudriavzevii [3] = assay: Antifungal activity against fluconazole-resistant Candida krusei CK506
Pichia kudriavzevii [4] = assay: Antifungal activity against fluconazole low-sensitive Candida krusei CK8
Candida parapsilosis [5] = assay: Antifungal activity against fluconazole-resistant Candida parapsilosis Houdeau; conditions: Lodderomyces parapsilosis
Candida albicans [6] = assay: Antifungal activity against fluconazole-resistant Candida albicans CA424
Candida parapsilosis [7] = assay: Antifungal activity against fluconazole-resistant Candida parapsilosis Rolland; conditions: Lodderomyces parapsilosis
Nakaseomyces glabratus = assay: Antifungal activity against fluconazole-resistant Candida glabrata CG468
Aspergillus fumigatus = assay: Antifungal activity against Aspergillus fumigatus AF98003

SMILES	MIC (Candida albicans [1]) [µg/mL]	MIC (Aspergillus fumigatus)	further results
OC(Cn1cncn1)(Cn1cncn1)c1ccc(F)cc1F [FLUCONAZOLE]	0.19 (≈ 0.62 µM)	–	MIC (Candida albicans [2]): > 64 µg/mL; MIC (Pichia kudriavzevii [3]): > 64 µg/mL; MIC (Pichia kudriavzevii [4]): 19 µg/mL (≈ 62 µM); MIC (Candida parapsilosis [5]): > 64 µg/mL; MIC (Candida albicans [6]): > 64 µg/mL; MIC (Candida parapsilosis [7]): > 64 µg/mL; MIC (Nakaseomyces glabratus): > 64 µg/mL
CN(Cc1ccc2c(ccn2C(=O)OC(C)(C)C)c1)CC(O)(Cn1cncn1)c1ccc(F)cc1F (stereo unspecified)	0.06 (≈ 0.121 µM)	inactive	–
CC(C)(C)OC(=O)n1ccc2cc(CNCC(O)(Cn3cncn3)c3ccc(Cl)cc3Cl)ccc21 (stereo unspecified)	0.039 (≈ 0.0755 µM)	inactive	–
CC(C)(C)OC(=O)n1ccc2cc(CNCC(O)(Cn3cncn3)c3ccc(F)cc3F)ccc21 (stereo unspecified)	0.003 (≈ 0.0062 µM)	inactive	MIC (Candida albicans [2]): 32 µg/mL (≈ 66.2 µM); MIC (Pichia kudriavzevii [3]): 27 µg/mL (≈ 55.8 µM); MIC (Pichia kudriavzevii [4]): 3.8 µg/mL (≈ 7.86 µM); MIC (Candida parapsilosis [5]): 24 µg/mL (≈ 49.6 µM); MIC (Candida albicans [6]): 33 µg/mL (≈ 68.2 µM); MIC (Candida parapsilosis [7]): 19 µg/mL (≈ 39.3 µM); MIC (Nakaseomyces glabratus): 12 µg/mL (≈ 24.8 µM)
CN(Cc1ccc2[nH]ccc2c1)CC(O)(Cn1cncn1)c1ccc(F)cc1F (stereo unspecified)	0.035 (≈ 0.0881 µM)	inactive	–
OC(CNCc1ccc2[nH]ccc2c1)(Cn1cncn1)c1ccc(Cl)cc1Cl (stereo unspecified)	0.031 (≈ 0.0745 µM)	inactive	–
OC(CNCc1ccc2[nH]ccc2c1)(Cn1cncn1)c1ccc(F)cc1F (stereo unspecified)	0.034 (≈ 0.0887 µM)	inactive	–
CN(Cc1ccc2[nH]cc(C(=O)C(F)(F)F)c2c1)CC(O)(Cn1cncn1)c1ccc(F)cc1F (stereo unspecified)	0.064 (≈ 0.13 µM)	inactive	–
O=C(c1ccccc1)n1ccc2cc(CNCC(O)(Cn3cncn3)c3ccc(F)cc3F)ccc21 (stereo unspecified)	0.027 (≈ 0.0554 µM)	inactive	–
CCC(C)n1ncn(-c2ccc(N3CCN(c4ccc(OCC5COC(Cn6cncn6)(c6ccc(Cl)cc6Cl)O5)cc4)CC3)cc2)c1=O (stereo unspecified) [ITRACONAZOLE]	–	0.42 µg/mL (≈ 0.595 µM)	–
O=C(c1ccccc1)n1ccc2cc(CNCC(O)(Cn3cncn3)c3ccc(Cl)cc3Cl)ccc21 (stereo unspecified)	0.031 (≈ 0.0596 µM)	inactive	–
CN(Cc1ccc2c(ccn2C(=O)c2ccccc2)c1)CC(O)(Cn1cncn1)c1ccc(F)cc1F (stereo unspecified)	0.032 (≈ 0.0638 µM)	inactive	–
